Consider 4 molecules from ChEMBL document CHEMBL1156413, “New acylated triterpene saponins from Silene fortunei that modulate lymphocyte proliferation” (2002).

Assay [1] concerns Jurkat. As to the kind of experiment: Immunomodulatory activity in human Jurkat cells assessed as stimulation index at 0.001 to 5 uM after 36 hrs by [3H]thymidine incorporation assay. The format is functional.
Assay [2] has as its system Jurkat. In words: Cytotoxicity against human Jurkat cells at 5 uM. The format is functional, cell-based.
Assay [3] relates to Jurkat. In words: Induction of apoptosis in human Jurkat cells assessed as enhancement of early apoptotic cells population at 10 uM after 18 hrs using annexin V-FITC staining by flow cytometry relative to control. The class given is functional. On the technique in general: Flow cytometry measures light scatter and fluorescence of single cells or particles in a stream.
Assay [4] concerns Jurkat. As to the kind of experiment: Cytotoxicity against human Jurkat cells up to 10 uM. The class given is functional, cell-based.
Assay [5] concerns Jurkat. In words: Cytotoxicity against human Jurkat cells at 5 to 10 uM. The format is functional, cell-based.
Assay [6] relates to Jurkat. As to the kind of experiment: Induction of apoptosis in human Jurkat cells assessed as early apoptotic cells at 10 uM after 18 hrs using annexin V-FITC staining by flow cytometry. The class given is functional, cell-based.
The subject of assay [7] is Jurkat. In words: Immunomodulatory activity in human Jurkat cells after 36 hrs by [3H]thymidine incorporation assay. The format is functional, cell-based. For orientation: Uptake of a labelled nucleoside into DNA is a usual measure of proliferation.
Assay [8] relates to Jurkat. As to the kind of experiment: Cytotoxicity against human Jurkat cells at 1 uM. The class given is functional, cell-based.

The structures appear in SMILES notation. Active and inactive are the calls of the source. The calls are words filed in the database; no cut-off is given here.

Take `COc1ccc(/C=C/C(=O)O[C@@H]2[C@H](O)[C@@H](O[C@@H]3O[C@@H](C)[C@H](O)[C@@H](O)[C@H]3O)[C@H](OC(=O)[C@]34CCC(C)(C)C[C@H]3C3=CC[C@@H]5[C@@]6(C)CC[C@H](O[C@@H]7O[C@H](C(=O)O)[C@@H](O)[C@H](O)[C@H]7O[C@@H]7O[C@H](CO)[C@H](O)[C@H](O)[C@H]7O)[C@@](C)(C=O)[C@@H]6CC[C@@]5(C)[C@]3(C)C[C@H]4O)O[C@@H]2C)cc1` (mixture of isomers) [JENISSEENSOSIDE C/D]: the Activity in the assay with Jurkat [1] came out at 1.36. Further, in the assay on Jurkat [2], the outcome was Active. The “fold change (FC)” value in the assay on Jurkat [3] is listed as 9.
Turning to `CC(=O)OC[C@H]1O[C@@H](O[C@H]2[C@@H](OC(C)=O)[C@@H](C)O[C@@H](OC(=O)[C@]34CCC(C)(C)C[C@H]3C3=CC[C@@H]5[C@@]6(C)CC[C@H](O[C@@H]7O[C@H](C(=O)O)[C@@H](O)[C@H](O)[C@H]7O[C@@H]7O[C@H](CO)[C@H](O)[C@H](O)[C@H]7O)[C@@](C)(C=O)[C@@H]6CC[C@@]5(C)[C@]3(C)C[C@H]4O)[C@@H]2O[C@@H]2O[C@@H](C)[C@H](O[C@@H]3OC[C@@H](O)[C@H](O[C@@H]4OC[C@H](O)[C@H](O)[C@H]4O[C@@H]4OC[C@H](O)[C@H](O)[C@H]4O)[C@H]3O)[C@@H](O)[C@H]2O)[C@H](O)[C@@H](O)[C@@H]1O`, the result in the assay on Jurkat [4] was inactive. The Activity in the assay with Jurkat [1] amounted to 1.56.
Regarding `C[C@@H]1O[C@@H](O[C@H]2[C@H](OC(=O)[C@]34CCC(C)(C)C[C@H]3C3=CC[C@@H]5[C@@]6(C)CC[C@H](O[C@@H]7O[C@H](C(=O)O)[C@@H](O)[C@H](O)[C@H]7O[C@@H]7O[C@H](CO)[C@H](O)[C@H](O)[C@H]7O)[C@@](C)(C=O)[C@@H]6CC[C@@]5(C)[C@]3(C)C[C@H]4O)O[C@H](C)[C@H](O)[C@@H]2O)[C@H](O)[C@H](O)[C@H]1O`, the result in the assay with Jurkat [5] and in the assay with Jurkat [6] was inactive.
Consider `COc1ccc(/C=C/C(=O)O[C@@H]2[C@H](OC(C)=O)[C@@H](O[C@@H]3O[C@@H](C)[C@H](O)[C@@H](O)[C@H]3O)[C@H](OC(=O)[C@]34CCC(C)(C)C[C@H]3C3=CC[C@@H]5[C@@]6(C)CC[C@H](O[C@@H]7O[C@H](C(=O)O)[C@@H](O)[C@H](O)[C@H]7O[C@@H]7O[C@H](CO)[C@H](O)[C@H](O)[C@H]7O)[C@@](C)(C=O)[C@@H]6CC[C@@]5(C)[C@]3(C)C[C@H]4O)O[C@@H]2C)cc1`, for which the Activity with Jurkat [1] was 1.44; with Jurkat [7], “Dose-dependent effect”. The outcome in the assay with Jurkat [8] was Active. Besides, the “fold change (FC)” value with Jurkat [3] turned out to be 2.8.
